Where two headings read alike, the source gives them in different places.
Legend:
Assay type in all cases: cell-based
CXCR5 = molecular target: T1, CXCR5 (Homo sapiens, UniProt P32302); assay: Figure S2a opioid peptide screen on chemokine receptors; set-up: dose or concentration left out as unconfirmed
T1 construct: expressed in transfected cells
T1 sequence (P32302 1-372): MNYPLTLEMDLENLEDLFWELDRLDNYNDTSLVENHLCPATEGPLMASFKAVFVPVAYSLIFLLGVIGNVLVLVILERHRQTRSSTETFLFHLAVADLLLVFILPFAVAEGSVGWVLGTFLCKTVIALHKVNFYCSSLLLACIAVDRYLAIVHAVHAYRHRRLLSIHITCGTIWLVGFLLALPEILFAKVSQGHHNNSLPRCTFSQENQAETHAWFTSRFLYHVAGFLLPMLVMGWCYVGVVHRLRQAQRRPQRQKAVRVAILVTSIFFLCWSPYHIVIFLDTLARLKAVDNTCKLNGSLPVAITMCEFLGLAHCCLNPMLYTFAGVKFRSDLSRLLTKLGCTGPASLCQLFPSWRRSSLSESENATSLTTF

CCR5 = molecular target: T2, CCR5 (Homo sapiens, UniProt P51681); assay: as above; set-up: dose or concentration left out as unconfirmed
T2 construct: expressed in transfected cells

ACKR2 = molecular target: T3, ACKR2 (Homo sapiens, UniProt O00590); assay: as above; set-up: dose or concentration left out as unconfirmed
T3 construct: expressed in transfected cells; host or cells: U87 cells (human glioblastoma)
T3 sequence (O00590 1-384): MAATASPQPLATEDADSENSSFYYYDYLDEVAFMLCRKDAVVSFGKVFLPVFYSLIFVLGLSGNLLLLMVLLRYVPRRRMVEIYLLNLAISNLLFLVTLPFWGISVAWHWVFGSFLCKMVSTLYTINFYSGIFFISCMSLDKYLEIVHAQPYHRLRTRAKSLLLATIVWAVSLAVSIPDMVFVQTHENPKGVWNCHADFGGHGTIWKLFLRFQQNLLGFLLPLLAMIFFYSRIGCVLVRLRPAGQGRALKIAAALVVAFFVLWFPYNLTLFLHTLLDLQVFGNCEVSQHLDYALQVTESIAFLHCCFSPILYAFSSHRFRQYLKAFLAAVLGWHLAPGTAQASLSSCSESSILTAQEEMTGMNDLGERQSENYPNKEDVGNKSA

ACKR = molecular target: T4, ACKR (Homo sapiens, UniProt P25106); assay: Figure 6h, ACKR, DMSO vs Bafilomycin treatment; details: n = 3 or 4 as in cell
T4 construct: expressed in transfected cells; host or cells: U87 cells (human glioblastoma)

CCR10 = molecular target: T5, CCR10 (Homo sapiens, UniProt P46092); assay: Figure S2a opioid peptide screen on chemokine receptors; set-up: dose or concentration left out as unconfirmed
T5 construct: expressed in transfected cells
T5 sequence (P46092 1-362): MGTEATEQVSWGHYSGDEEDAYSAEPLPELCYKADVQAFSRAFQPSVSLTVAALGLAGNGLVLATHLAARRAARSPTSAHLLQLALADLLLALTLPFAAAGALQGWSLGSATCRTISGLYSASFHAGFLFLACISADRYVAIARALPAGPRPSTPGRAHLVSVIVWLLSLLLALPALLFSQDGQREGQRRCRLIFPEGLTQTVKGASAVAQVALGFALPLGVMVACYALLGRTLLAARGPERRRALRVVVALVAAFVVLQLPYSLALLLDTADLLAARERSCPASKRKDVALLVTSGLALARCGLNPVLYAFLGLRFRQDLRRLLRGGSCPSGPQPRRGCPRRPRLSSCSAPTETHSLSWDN

KOR = KOR (Homo sapiens, UniProt P41145); assay: Figure 6h, KOR, DMSO vs Bafilomycin treatment; set-up: expressed in transfected cells; host or cells: U87 (human glioblastoma); details: n = 3 or 4 as in cell
CXCR3B = molecular target: T6, CXCR3B (Homo sapiens, UniProt P49682); assay: Figure S2a opioid peptide screen on chemokine receptors; set-up: dose or concentration left out as unconfirmed
T6 construct: expressed in transfected cells; host or cells: U87 cells
T6 sequence (P49682 1-415 isoform P49682-2): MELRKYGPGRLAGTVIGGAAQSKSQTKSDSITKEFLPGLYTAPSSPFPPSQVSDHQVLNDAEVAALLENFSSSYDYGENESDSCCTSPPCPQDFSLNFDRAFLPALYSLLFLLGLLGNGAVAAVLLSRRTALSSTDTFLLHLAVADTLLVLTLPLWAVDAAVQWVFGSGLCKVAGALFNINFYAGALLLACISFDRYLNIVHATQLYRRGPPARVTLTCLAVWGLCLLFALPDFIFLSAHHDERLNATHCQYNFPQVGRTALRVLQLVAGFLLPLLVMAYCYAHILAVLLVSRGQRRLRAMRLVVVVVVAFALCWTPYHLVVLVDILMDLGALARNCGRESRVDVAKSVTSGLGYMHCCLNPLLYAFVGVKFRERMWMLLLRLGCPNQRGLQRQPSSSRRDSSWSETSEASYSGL

[1] = replicate 1, read-out: CXCR5 activity, ctrl+ = 100
[2] = replicate 2, read-out: CXCR5 activity, ctrl+ = 100
[3] = replicate 1, read-out: CCR5 activity, ctrl+ = 100
[4] = replicate 2, read-out: CCR5 activity, ctrl+ = 100
[5] = replicate 1, read-out: ACKR2 activity, ctrl+ = 100
[6] = replicate 2, read-out: ACKR2 activity, ctrl+ = 100
[7] = 'DMSO vs Bafilomycin treatment'
[8] = first of two columns under 'DMSO vs Bafilomycin treatment' (presumably DMSO)
[9] = replicate 1, read-out: CCR10 activity, ctrl+ = 100
[10] = replicate 2, read-out: CCR10 activity, ctrl+ = 100
[11] = replicate 1, read-out: CXCR3B activity, ctrl+ = 100
[12] = replicate 2, read-out: CXCR3B activity, ctrl+ = 100

T2 sequence (P51681 whole entry): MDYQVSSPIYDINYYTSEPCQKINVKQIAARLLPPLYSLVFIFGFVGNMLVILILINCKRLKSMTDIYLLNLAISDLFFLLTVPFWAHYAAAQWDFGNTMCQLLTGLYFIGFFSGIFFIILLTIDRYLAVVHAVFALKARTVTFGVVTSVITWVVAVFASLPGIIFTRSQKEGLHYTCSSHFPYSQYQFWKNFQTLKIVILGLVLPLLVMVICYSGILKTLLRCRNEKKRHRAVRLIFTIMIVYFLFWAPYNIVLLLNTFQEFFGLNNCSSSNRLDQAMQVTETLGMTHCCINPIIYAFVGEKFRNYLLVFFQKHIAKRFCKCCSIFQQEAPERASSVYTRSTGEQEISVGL
KOR, sequence (P41145 whole entry): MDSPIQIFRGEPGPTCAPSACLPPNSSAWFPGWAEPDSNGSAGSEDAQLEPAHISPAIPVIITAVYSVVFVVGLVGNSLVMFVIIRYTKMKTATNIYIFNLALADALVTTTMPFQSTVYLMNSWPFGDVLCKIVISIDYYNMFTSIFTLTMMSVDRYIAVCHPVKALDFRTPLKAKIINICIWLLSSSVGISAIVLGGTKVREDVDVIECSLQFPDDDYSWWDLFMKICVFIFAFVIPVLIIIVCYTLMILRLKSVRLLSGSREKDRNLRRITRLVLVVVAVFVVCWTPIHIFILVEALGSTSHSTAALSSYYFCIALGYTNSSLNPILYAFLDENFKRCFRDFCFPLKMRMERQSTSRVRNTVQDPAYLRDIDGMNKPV
T4 sequence (P25106 whole entry): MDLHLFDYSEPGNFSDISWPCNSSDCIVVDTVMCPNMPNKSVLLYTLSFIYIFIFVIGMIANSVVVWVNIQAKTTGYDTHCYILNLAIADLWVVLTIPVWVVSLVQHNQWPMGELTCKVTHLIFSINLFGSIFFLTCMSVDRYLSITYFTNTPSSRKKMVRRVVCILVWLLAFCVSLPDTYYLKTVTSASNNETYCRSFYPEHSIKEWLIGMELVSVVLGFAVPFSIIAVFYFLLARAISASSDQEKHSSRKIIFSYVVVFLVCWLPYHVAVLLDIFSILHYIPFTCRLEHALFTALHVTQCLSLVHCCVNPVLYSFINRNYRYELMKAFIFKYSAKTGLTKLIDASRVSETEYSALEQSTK

Row | Structure (SMILES) | activation (CXCR5; [1]) [%] | activation (CXCR5; [2]) [%] | activation (CXCR5; replicate 3, read-out: CXCR5 activity, ctrl+ = 100) [%] | activation (CCR5; [3]) [%] | activation (CCR5; [4]) [%] | activation (CCR5; replicate 3, read-out: CCR5 activity, ctrl+ = 100) [%] | activation (ACKR2; [5]) [%] | activation (ACKR2; [6]) [%] | activation (ACKR2; replicate 3, read-out: ACKR2 activity, ctrl+ = 100) [%] | Mean ± SEM (Figure 6h, ACKR) (ACKR; [7]) | Mean ± SEM (Figure 6h, ACKR) (ACKR; [8]) | activation (CCR10; [9]) [%] | activation (CCR10; [10]) [%] | activation (CCR10; replicate 3, read-out: CCR10 activity, ctrl+ = 100) [%] | Mean ± SEM (Figure 6h, KOR) (KOR; [7]) | Mean ± SEM (Figure 6h, KOR) (KOR; [8]) | activation (CXCR3B; [11]) [%] | activation (CXCR3B; [12]) [%] | activation (CXCR3B; replicate 3, read-out: CXCR3B activity, ctrl+ = 100) [%]
1 | CC(C)C[C@H](NC(=O)[C@H](Cc1ccccc1)NC(=O)CNC(=O)CNC(=O)[C@@H](N)Cc1ccc(O)cc1)C(=O)N[C@@H](CCCN=C(N)N)C(=O)N[C@@H](CCCN=C(N)N)C(=O)N[C@@H](CCC(N)=O)C(=O)N[C@@H](Cc1ccccc1)C(=O)N[C@@H](CCCCN)C(=O)N[C@H](C(=O)N[C@H](C(=O)N[C@H](C(=O)O)[C@@H](C)O)C(C)C)C(C)C [Dynorphin B] | -2.46 | -6.11 | 11.3 | 0.97 | 0.0962 | 1.82 | -36.9 | -27.9 | -3.73 | 90,67 ± 2,557, n=3 | 114,2 ± 9,487, n=3 | -1.41 | -7.38 | 5.94 | 30,69 ± 2,71, n=3 | 28,51 ± 2,354, n=3 | -3.84 | -0.0101 | 0.918
2 | CC(C)C[C@H](NC(=O)[C@H](CCCCN)NC(=O)[C@H](CCCN=C(N)N)NC(=O)[C@H](C)NC(=O)[C@H](CO)NC(=O)[C@H](CCCCN)NC(=O)[C@H](CCCN=C(N)N)NC(=O)[C@H](C)NC(=O)CNC(=O)[C@@H](NC(=O)[C@H](Cc1ccccc1)NC(=O)CNC(=O)CNC(=O)[C@@H](N)Cc1ccccc1)[C@@H](C)O)C(=O)N[C@@H](C)C(=O)N[C@@H](CC(N)=O)C(=O)N[C@@H](CCC(N)=O)C(=O)O [Nociceptin] | -2.94 | -7.28 |  | 1.59 | -0.199 |  | -19.6 | -66.1 |  |  |  | -2.56 | -4.7 |  |  |  | -0.23 | -6.64 | 

Source: article PMC7305236, “The atypical chemokine receptor ACKR3/CXCR7 is a broad-spectrum scavenger for opioid peptides” (Nature Communications, 2020)
